Patent US9556207B2, “Pyrazole compounds, compositions and methods for treatment of degenerative diseases and disorders” (MUSC FOUNDATION FOR RESEARCH DEVELOPMENT, priority 2013, dated 2017)

Legend:
661W or C6 cells [1] = experiment: XF FCCP-uncoupled oxygen consumption rate assay (IBMX challenge); type: cell-based; details: 24 h; for activity at 0.01 µM: 10 nM compound; for activity at 0.1 µM: 100 nM compound
Procedure: XF FCCP-Uncoupled Oxygen Consumption Rate Assay
The XF FCCP-uncoupled oxygen consumption rate assay assesses mitochondrial capacity by measuring cellular respiration. It was shown that the maximum FCCP-uncoupled oxygen consumption rate (OCR) was a good estimate of maximal mitochondrial capacity (Beeson 2010) and that IBMX treatment of 661W or C6 cells for 24 h caused a loss in maximal uncoupled OCR (Perron 2013). Thus, cells were pretreated with the exemplified compounds for 1 h, added 600 μM IBMX and then measured the uncoupled rate after 24 h. The OCR measurements were performed using a Seahorse Bioscience XF instrument (Seahorse Bioscience, Billerica, Md.), as previously published (Perron 2013). O2 leakage through the plastic sides and bottom of the plate was accounted for using the AKOS algorithm in the XF software package. Cells were plated on 96- or 24-well custom plates designed for use in the XF and grown to confluency in DMEM+5% FBS (48 h). The medium was then replaced with DMEM+1% FBS for 24 h, along with any treatments.

661W or C6 cells [2] = experiment: MTT assay (protection against calcium-ionophore A23187); type: cell-based; details: for percent protection against ionophore-induced loss of MTT signal at 0.01 µM: 10 nM compound; for percent protection against ionophore-induced loss of MTT signal at 0.001 µM: 1 nM compound; for percent protection against ionophore-induced loss of MTT signal at 0.0008 µM: 800 pM compound
Procedure: The compound 3-(4,5-Dimethylthiazol-2-yl)-2,5-diphenyltetrazolium bromide (MTT) is a tetrazolium ion that is reduced to a blue formazan dye via several families of NAD(P)H-dependent oxidoreductases. Formation of the formazan dye from MTT or other related tetrazolium dyes are commonly used as a viability assay even though, in fact, the assay is a metabolic capacity assay.
In this assay, 661W or C6 cells were maintained in DMEM supplemented with 10% FBS. 100 μL of 70,000 cells/mL cells were seeded into each well of 96 well plates using DMEM supplemented with 5% FBS. Cells were then allowed to grow to confluency for 48 hours. The compounds of the invention were added in 2 μL media and calcium-ionophore A23187 was then added in 1 μL for a final concentration of 1 μM and after 24 h, 20 uL of 2 μg/mL MTT were added to each well and the cells were incubated for another 4 h after which 100 μL of 1% SDS in 0.01 M aqueous HCl were added to each well and the plates were incubated overnight. Absorbance was measured at […] (background correction). The 1 μM ionophore A23187 caused about 50% loss in MTT signal at 24 h. Protection was calculated as the increase in absorbance of treatment groups normalized to the vehicle control.

[3] = test system: rd1 mouse retinal explants (photoreceptors); experiment: Retinal degeneration assay (rd1 mouse retina organ cultures); type: cell-based; details: explants cultured 11 days, rows of photoreceptors in ONL
Excerpt: Retinal Degeneration Assay
It was reasoned that the compounds' activities would enable them to protect against loss of photoreceptors in retinal degenerative animal models. As a translational bridge between the cell line-based assays and in vivo animal studies, mouse retina organ cultures were utilized. These retinal explants were a powerful ex vivo screening tool, which allowed the testing of photoreceptor cell survival within the retinal network, and the effects of a specific compound were tested like in an in vitro system, without systemic interference. In this assay, the rd1 mouse was utilized. The genotype of the rd1 mouse has a mutation in the β-subunit of the phosphodiesterase gene. […] The genetic deficit and the retinal pathology were very similar to that observed in the patients with βPDE-dependent RP. In these mice, rod photoreceptor degeneration started after postnatal day 10 (P10), progressing rapidly, such that at P21, only 1-2 rows of photoreceptor remained, mainly representing cones. Finally, the rd1 mouse retina was amenable to culturing, replicating both retinal development and degeneration, following the same time course as in vivo. […] At the end of the experiments, tissues were fixed, sectioned and stained with 0.1% toluidine and the numbers of rows of photoreceptors remaining in the outer nuclear layer (ONL) were counted.

[4] = test system: Balb/c mice photoreceptors; experiment: Light model assay (constant light damage, eyedrops); type: in vivo, mouse; details: 125 μM eyedrops once per day; continuous light 7 days; assessed 10 days after onset
Excerpt: The light model assay is generally accepted as a model of age related macular degeneration (AMD). […] In particular, oxidative damage has been detected by immunohistochemistry, detecting the presence of oxidized and tyrosine-phosphorylated proteins as well as the upregulation of endogenous antioxidants such as thioredoxin and glutathione peroxidase. […] Additional indirect evidence for the involvement of oxidative stress in photoreceptor degeneration has been provided by treatment of photodamaged retinas with antioxidants such as dimethylthiourea, or the treatment of N-methyl-N-nitrosourea (MNU)-challenged rats with the antioxidant DHA.
The light model assay was used to further test the therapeutic potential of the compounds of the invention. Photoreceptors from albino animals are very sensitive to constant light, lacking the RPE pigment to protect them. Thus, Balb/c mice were exposed to continuous light for 7 days, which caused loss of about 50% of the photoreceptor cells as measured via histology. To test the potential therapeutic efficacy, eyedrops were formulated in 0.1% Bij 35 in […], applied once or twice daily throughout the period of light exposure, and assessed their effect on the light-induced degeneration of photoreceptor cells morphologically and electrophysiologically, 10 days after the onset of the CL exposure.

[5] = 1 h pretreatment, 600 μM IBMX, read-out: XF FCCP OCR (% Ctrl, concentration)
[6] = 1 μM A23187, 24 h, read-out: MTT Protection(%, concentration)

CCOC(=O)c1cc([Si](C)(C)C)nn1CC(=O)c1cc(OC)ccc1OC [Example 5, Ethyl 1-(2-(2,5-dimethoxyphenyl)-2-oxoethyl)-3-(trimethylsilyl)-1H-pyrazole-5-carboxylate]
activity at 0.01 µM (661W or C6 cells [1]; [5]): 72% | percent protection against ionophore-induced loss of MTT signal at 0.01 µM (661W or C6 cells [2]; [6]): 76.6%

CC(C)Cn1c(=O)n(C)c(=O)c2[nH]cnc21 [IBMX, reference compound]
decrease in the uncoupled rate (OCR) (661W or C6 cells [1]; IBMX treatment alone, 600 μM): ~50%

CCOC(=O)c1cc(-c2cccnc2)nn1CC(=O)c1ccc(OC)cc1OC [Example 8, Ethyl 1-(2-(2,4-dimethoxyphenyl)-2-oxoethyl)-3-(pyridin-3-yl)-1H-pyrazole-5-carboxylate]
activity at 0.1 µM (661W or C6 cells [1]; [5]): 64% | percent protection against ionophore-induced loss of MTT signal at 0.001 µM (661W or C6 cells [2]; [6]): 75.6%

CCOC(=O)c1cc([Si](C)(C)C)nn1CC(=O)c1cccnc1 [Example 10, Ethyl 1-(2-oxo-2-(pyridin-3-yl)ethyl)-3-(trimethylsilyl)-1H-pyrazole-5-carboxylate]
percent protection against ionophore-induced loss of MTT signal at 0.001 µM (661W or C6 cells [2]; [6]): 47.8%

CCOC(=O)c1cc(C(C)C)nn1Cc1c[nH]c2ccccc12 [Example 12, Ethyl 1-((1H-indol-3-yl)methyl)-3-isopropyl-1H-pyrazole-5-carboxylate]
percent protection against ionophore-induced loss of MTT signal at 0.001 µM (661W or C6 cells [2]; [6]): 59.4%

CNc1ccc2oc(C[C@H]3O[C@@]4(CC[C@H]3C)O[C@H]([C@H](C)C(=O)c3ccc[nH]3)[C@H](C)C[C@H]4C)nc2c1C(=O)O [Example A23187, reference compound]
loss in MTT signal (661W or C6 cells [2]; 1 μM ionophore alone, 24 h): about 50%

CCOC(=O)c1cc(-c2ccccn2)n(CC(=O)c2ccc(OC)cc2OC)n1 [Example 2, Ethyl 1-(2-(2,4-dimethoxyphenyl)-2-oxoethyl)-5-(pyridin-2-yl)-1H-pyrazole-3-carboxylate]
activity at 0.1 µM (661W or C6 cells [1]; [5]): 62% | rd1 protection (concentration, # of rows) ([3]; 20 nM): 20 nM 4.46 # of rows | percent protection against ionophore-induced loss of MTT signal at 0.0008 µM (661W or C6 cells [2]; [6]): 73.9%

CCOC(=O)c1cc([Si](C)(C)C)n(CC(=O)c2cccnc2)n1 [Example 9, Ethyl 1-(2-oxo-2-(pyridin-3-yl)ethyl)-5-(trimethylsilyl)-1H-pyrazole-3-carboxylate]
activity at 0.1 µM (661W or C6 cells [1]; [5]): 67% | percent protection against ionophore-induced loss of MTT signal at 0.001 µM (661W or C6 cells [2]; [6]): 59%

CCOC(=O)c1cc(-c2ccccn2)nn1CC(=O)c1ccc(OC)cc1OC [Example 1, Ethyl 1-(2-(2,4-dimethoxyphenyl)-2-oxoethyl)-3-(pyridin-2-yl)-1H-pyrazole-5-carboxylate]
activity at 1 µM (661W or C6 cells [1]; 1 uM compound, 1 h pretreatment, 600 μM IBMX, read-out: XF FCCP OCR (% Ctrl, concentration)): 58% | percent protection against ionophore-induced loss of MTT signal at 0.0008 µM (661W or C6 cells [2]; [6]): 10.4%

CCOC(=O)c1cc([Si](C)(C)C)nn1Cc1cc(OC)c(OC)c(OC)c1 [Example 7, Ethyl 1-(3,4,5-trimethoxybenzyl)-3-(trimethylsilyl)-1H-pyrazole-5-carboxylate]
percent protection against ionophore-induced loss of MTT signal at 0.01 µM (661W or C6 cells [2]; [6]): 40%

CCOC(=O)c1cc(-c2ccccn2)nn1Cc1cccnc1 [Example 6, Ethyl 3-(pyridin-2-yl)-1-(pyridin-3-ylmethyl)-1H-pyrazole-5-carboxylate]
activity at 0.01 µM (661W or C6 cells [1]; [5]): 75% | percent protection against ionophore-induced loss of MTT signal at 0.01 µM (661W or C6 cells [2]; [6]): 73.5%

CCOC(=O)c1cc(-c2cccnc2)nn1CC(=O)c1cc(OC)ccc1OC [Example 3, Ethyl 1-(2-(2,5-dimethoxyphenyl)-2-oxoethyl)-3-(pyridin-3-yl)-1H-pyrazole-5-carboxylate]
percent protection against ionophore-induced loss of MTT signal at 0.001 µM (661W or C6 cells [2]; [6]): 43.5%

CCOC(=O)c1cc(-c2ccccn2)nn1CC(=O)c1cc(OC)ccc1OC [Example 11, Ethyl 1-(2-(2,5-dimethoxyphenyl)-2-oxoethyl)-3-(pyridin-2-yl)-1H-pyrazole-5-carboxylate]
percent protection against ionophore-induced loss of MTT signal at 1 µM (661W or C6 cells [2]; 1 μM compound, 1 μM A23187, 24 h, read-out: MTT Protection(%, concentration)): 28.3%

CCOC(=O)c1cc([Si](C)(C)C)nn1CC(=O)c1ccc(OC)cc1OC [Example 4, Ethyl 1-(2-(2,4-dimethoxyphenyl)-2-oxoethyl)-3-(trimethylsilyl)-1H-pyrazole-5-carboxylate]
activity at 0.01 µM (661W or C6 cells [1]; [5]): 67% | rd1 protection (concentration, # of rows) ([3]; 10 nM): 10 nM 3.2 # of rows | percent protection against ionophore-induced loss of MTT signal at 0.01 µM (661W or C6 cells [2]; [6]): 87% | LD Protection (concentration, # of rows) [4]: 125 μM 6.42 # of rows
